# Legend:
# [1] = Tumor accumulation evaluated by fluorescence of tumor homogenate; format: in vivo; settings: intravenous, 32 nmol in terms of the amount of dye, colon 26 tumor-bearing mouse, tail vein, 32 nmol as dye, 24 hours after administration
# Protocol: The tumor accumulation was evaluated by an intraveneous injection of 100 microliters (13 nmol in terms of ICG) of various ICG-PEG aqueous solution into tumor-bearing mouse models, in which various cells were subcutaneously transplanted into BALB/c Slc-nu/nu mice. The mice were euthanized with a carbon dioxide gas 24 hours after the administration. Subsequently, each cancer tissue was enucleated. The cancer tissue was transferred to a plastic tube, 1% Triton-X100 aqueous solution 1.25 times the cancer tissue in weight was added, and a homogenate was produced using a plastic pestle. […] The amount of dye in the cancer tissue (% ID/g) was quantified by using IVIS (registered trademark) Imaging System 200 Series (produced by Caliper Life Science Inc.) and measuring the fluorescent intensity of the solution of the dye extracted from the tumor tissue and the standard solution for calibration in the state of the plastic tube.
# In order to evaluate the tumor accumulation of the compound, a contrast medium was administered to a tail vein of a tumor-bearing mouse which had been transplanted a colon 26 cell line. […] Then, tumor accumulation 1 day after administration of the contrast medium into the tumor-bearing mouse was evaluated by photoacoustic imaging and fluorescence. […] The amount of accumulation into a tumor of the mouse was evaluated using fluorescence, as described below. […]
# colon 26 cell line = test: Tumor accumulation evaluated by photoacoustic imaging; format: in vivo; settings: colon 26 tumor-bearing mouse, tail vein, 32 nmol as dye, 797 nm
# Protocol: Photoacoustic signals were measured before a prepared compound was administered and at any given timing after administration by using the commercially available photoacoustic imaging apparatus (Nexus128, produced by Endra Inc.), so that three-dimensional reconfiguration data were obtained respectively. The photoacoustic intensity in a region of interest (ROI) was measured on the basis of the resulting three-dimensional reconfiguration data.
# In the example according to the present invention, the amount of migration of the compound to a tumor mass was evaluated using a tumor-bearing model mouse. […] The fluorescent imaging was performed using IVIS (registered trademark) Imaging System and fluorescent intensity of a region of interest (ROI) of the tumor portion was measured.
# In order to evaluate the tumor accumulation of the compound, a contrast medium was administered to a tail vein of a tumor-bearing mouse which had been transplanted a colon 26 cell line. […] Then, tumor accumulation 1 day after administration of the contrast medium into the tumor-bearing mouse was evaluated by photoacoustic imaging and fluorescence. […] Subsequently, the relative photoacoustic signal intensity 1 day after administration relative to before administration was calculated. The amount of accumulation into a tumor of the mouse was evaluated using fluorescence, as described below. […]
# [2] = Evaluation of retentivity of compound in blood (fluorescent intensity of blood); format: in vivo, nude mouse
# Protocol: In order to examine the retentivity of the compound in blood, various compounds were administered to veins of nude mouse tails and the amounts of compounds remaining in blood were evaluated. […] The method for producing the compound was as described in Example 1. In Table 4, k represents 1,000. For example, 5 k represents 5,000.
# The retentivity of the compound in blood was evaluated as described below. Blood samples were taken from a mouse 1 hour, 3 hours, 1 day, 2 days, and 1 week after administration, and the fluorescent intensity of the blood was measured using IVIS (registered trademark) Imaging System 200 Series (produced by Caliper Life Science Inc.). The amount of administration to the mouse was 0.5 mg/kg in terms of the amount of dye. […] It is considered that access of serum protein to the near-infrared organic dye was limited by bonding the branched chain PEG to the near-infrared organic dye, accumulation into a liver was reduced and, as a result, the retentivity in blood was acquired.
# [3] = rat, ICG administered to the blood alone; cited from earlier work
# [4] = in vivo; cited from earlier work
# [5] = nude mouse, tail vein, 0.5 mg/kg as dye, ICG 1 day after administration = 1
smiles,measurement,setting,value
"CC1(C)C(/C=C/C=C/C=C/C=C2/N(CCCCS(=O)(=O)[O-])c3ccc4ccccc4c3C2(C)C)=[N+](CCCCS(=O)(=O)[O-])c2ccc3ccccc3c21.[Na+] [ICG, Indocyanine Green]",tissue uptake at 24 h,[1],0.1 %ID/g
same,Relative photoacoustic intensity (1 day after administration),colon 26 cell line,1
same,Retentivity in blood,[2]; in words,disappeared from the blood promptly
same,"Relative concentration in blood, 1 week after",[2]; [5],0.72
same,"Relative concentration in blood, 1 hour after",[2]; [5],36.7
same,"Relative concentration in blood, 3 hours after",[2]; [5],19
same,"Relative concentration in blood, 2 days after",[2]; [5],0.89
same,"Relative concentration in blood, 1 day after","[2]; nude mouse, tail vein, 0.5 mg/kg as dye, ICG 1 day after administration = 1 (Table 6)",1
same,Relative concentration in blood (1 day after administration),"[2]; nude mouse, tail vein, 0.5 mg/kg as dye, concentration of ICG in blood 1 day after administration = 1 (Table 5)",1
same,Time after administration until photoacoustic signal intensity is reduced to the level of the blood,[3],several tens of minutes
same,Half-life in blood,[4],about several minutes
